Experiment [1] concerns Acinetobacter baumannii ATCC17961. Description: Antimicrobial susceptibility testing, 90% growth inhibitory concentration (IC90) determination. Format: cell-based. As to conditions: 90% growth inhibitory concentration, Acinetobacter baumannii ATCC17961, Iso-Sensitest broth, OD 600 nm over 16 h; read-out: ATCC17961 IC90. The protocol:
(§1) The in vitro antimicrobial activity of the compounds was determined according to the following procedure:
(§2) The assay used a 10-points Iso-Sensitest broth medium to measure quantitatively the in vitro activity of the compounds against Acinetobacter baumannii ATCC 17978 and Acinetobacter baumannii ATCC17961.
(§3) Stock compounds in DMSO were serially twofold diluted (e.g. range from 50 to 0.097 μM final concentration) in 384 wells microtiter plates and inoculated with 49 μl the bacterial suspension in Iso-Sensitest medium to have a final cell concentration of ˜5×10^(5) CFU/ml in a final volume/well of 50 ul/well. Microtiter plates were incubated at 35+2° C.
(§4) Bacterial cell growth was determined with the measurement of optical density at X=600 nm each 20 minutes over a time course of 16 h. Growth inhibition was calculated during the logarithmic growth of the bacterial cells with determination of the concentration inhibiting 50% (IC50) and 90% (IC90) of the growth.
(§5) Table 1 provides the 90% growth inhibitory concentrations (IC90) in micromoles per liter of the compounds of present invention obtained against the strain Acinetobacter baumannii ATCC17978 and Acinetobacter baumannii ATCC17961.

Experiment [2] relates to Acinetobacter baumannii ATCC 17978. Described as above. Format: cell-based. As to conditions: Acinetobacter baumannii ATCC17978, Iso-Sensitest broth, OD 600 nm over 16 h. The protocol:
as §1, §2, §3, §4, §5

Each structure is given as a SMILES string. Where a name gives a salt, the structure may show the parent alone.

For the compound `CCc1cc(Nc2nccn3c(-c4ccc(OC)c(F)c4F)cnc23)ccc1C(=O)N[C@@H]1CCCC[C@@H]1N` (racemic) [Example 8, rac-N-((1R,2S)-2-aminocyclohexyl)-4-((3-(2,3-difluoro-4-methoxyphenyl)imidazo[1,2-a]pyrazin-8-yl)amino)-2-ethylbenzamide], the figures for the concentration for an effect of 90% (IC90) in experiment [1] and in experiment [2] were 852 nM and 850 nM, respectively.

As for `COc1ccc(-c2cnc3c(Nc4ccc(C(=O)NC5CCC(NC(=O)[C@@H]6C[C@@H](O)CN6)C5)c(C)c4)nccn23)c(F)c1F` (mixture of isomers) [Example 36, rac-(2R,4S)-N-[3-[[4-[[3-(2,3-difluoro-4-methoxyphenyl)imidazo[1,2-a]pyrazin-8-yl]amino]-2-methylbenzoyl]amino]cyclopentyl]-4-hydroxypyrrolidine-2-carboxamide], the IC90 in experiment [1] and in experiment [2] was 72 nM in each case. As to `CCc1cc(Nc2nccn3c(-c4ccc(OC)c(F)c4F)cnc23)ccc1C(=O)NC1(CN)CC1` [Example 4, N-(1-(aminomethyl)cyclopropyl)-4-((3-(2,3-difluoro-4-methoxyphenyl)imidazo[1,2-a]pyrazin-8-yl)amino)-2-ethylbenzamide hydrochloride], the IC90 was 274 nM in experiment [1] and 320 nM in experiment [2]. The corresponding values for `CCc1cc(Nc2nccn3c(-c4ccc(OC)c(F)c4F)cnc23)ccc1C(=O)N[C@H]1CC[C@@H](NC(=O)[C@@H](N)CCCNC(=N)N)CC1` [Example 5, N-[4-[[(2S)-2-amino-5-guanidino-pentanoyl]amino]cyclo-hexyl]-4-[[3-(2,3-difluoro-4-methoxy-phenyl)imidazo[1,2-a]pyrazin-8-yl]amino]-2-ethyl-benzamide trifluoroacetate] are 176 nM and 180 nM. `CCc1cc(Nc2nccn3c(-c4ccc(OC)c(F)c4F)cnc23)ccc1C(=O)N[C@H]1CC[C@@H](N)CC1` [Example 6, Cis-N-(4-aminocyclohexyl)-4-[[3-(2,3-difluoro-4-methoxy-phenyl)imidazo[1,2-a]pyrazin-8-yl]amino]-2-ethyl-benzamide]: the IC90 in experiment [1] and in experiment [2] was 88 nM in each case. For the compound `CCc1cc(Nc2nccn3c(-c4ccc(OC)c(F)c4F)cnc23)ccc1C(=O)N[C@H]1CCC[C@@H]1N` [Example 9, N-((1S,2S)-2-aminocyclopentyl)-4-((3-(2,3-difluoro-4-methoxyphenyl)imidazo[1,2-a]pyrazin-8-yl)amino)-2-ethylbenzamide], the IC90 in experiment [1] is 297 nM; in experiment [2], 300 nM. As to `CCc1cc(Nc2nccn3c(-c4ccc(OC)c(F)c4F)cnc23)ccc1C(=O)N[C@H]1C[C@@H](N)C1` [Example 11, Cis N-(3-aminocyclobutyl)-4-[[3-(2,3-difluoro-4-methoxy-phenyl)imidazo[1,2-a]pyrazin-8-yl]amino]-2-ethyl-benzamide], the IC90 in experiment [1] and in experiment [2] was 84 nM each time. As for `CCc1cc(Nc2nccn3c(-c4ccc(OC)c(F)c4F)cnc23)ccc1C(=O)NC1CNC1` [Example 12, N-(azetidin-3-yl)-4-[[3-(2,3-difluoro-4-methoxy-phenyl)imidazo[1,2-a]pyrazin-8-yl]amino]-2-ethyl-benzamide], the IC90 in experiment [1] and in experiment [2] was 230 nM throughout. Regarding `CCc1cc(Nc2nccn3c(-c4ccc(OC)c(F)c4F)cnc23)ccc1C(=O)NC1CCNCC1` [Example 13, 4-[[3-(2,3-difluoro-4-methoxy-phenyl)imidazo[1,2-a]pyrazin-8-yl]amino]-2-ethyl-N-(4-piperidyl)benzamide], the IC90 in experiment [1] was found to be 276 nM; in experiment [2] it was 280 nM. Consider `CCc1cc(Nc2nccn3c(-c4ccc(OC)c(F)c4F)cnc23)ccc1C(=O)N[C@H]1C[C@H](N)C1` [Example 14, N-(3-aminocyclobutyl)-4-[[3-(2,3-difluoro-4-methoxy-phenyl)imidazo[1,2-a]pyrazin-8-yl]amino]-2-ethyl-benzamide], for which the figures for the concentration for an effect of 90% (IC90) in experiment [1] and in experiment [2] were 248 nM and 250 nM, respectively. For `CCc1cc(Nc2nccn3c(-c4ccc(OC)c(F)c4F)cnc23)ccc1C(=O)NC1(CNC(=N)N)CC1` [Example 18, N-[1-(carbamimidamidomethyl)cyclopropyl]-4-[[3-(2,3-difluoro-4-methoxyphenyl)imidazo[1,2-a]pyrazin-8-yl]amino]-2-ethylbenzamide], the values for the concentration for an effect of 90% (IC90) in experiment [1] and in experiment [2] were 83 nM and 84 nM, respectively.

Take `CCc1cc(Nc2nccn3c(-c4ccc(OC)c(F)c4F)cnc23)ccc1C(=O)NC1(CNC(C)=N)CC1` [Example 19, 4-[[3-(2,3-difluoro-4-methoxyphenyl)imidazo[1,2-a]pyrazin-8-yl]amino]-N-[1-[(ethanimidoylamino)methyl]cyclopropyl]-2-ethylbenzamide]: the IC90 in experiment [1] worked out at 154 nM; in experiment [2], 150 nM. In experiment [2], `CCc1cc(Nc2nccn3c(-c4ccc(OC)c(F)c4F)cnc23)ccc1C(=O)N[C@H]1CCNC1` [Example 28, 4-[[3-(2,3-difluoro-4-methoxyphenyl)imidazo[1,2-a]pyrazin-8-yl]amino]-2-ethyl-N-[(3S)-pyrrolidin-3-yl]benzamide;hydrochloride] returned an IC90 of 370 nM. Compound `CCc1cc(Nc2nccn3c(-c4ccc(OC(F)F)c(F)c4F)cnc23)ccc1C(=O)NC1(CN)CC1` [Example 29, N-[1-(aminomethyl)cyclopropyl]-4-[[3-[4-(difluoromethoxy)-2,3-difluorophenyl]imidazo[1,2-a]pyrazin-8-yl]amino]-2-ethylbenzamide;hydrochloride] yielded a 90% effect concentration (IC90) in experiment [2] of 710 nM.

In experiment [2], `CCc1cc(Nc2nccn3c(-c4ccc(OC)c(F)c4F)cnc23)ccc1C(=O)N[C@H]1CCNC1=O` [Example 30, 4-[[3-(2,3-difluoro-4-methoxyphenyl)imidazo[1,2-a]pyrazin-8-yl]amino]-2-ethyl-N-[(3 S)-2-oxopyrrolidin-3-yl]benzamide] yielded an IC90 of 930 nM. Take `COc1ccc(-c2cnc3c(Nc4ccc(C(=O)N[C@H]5CC[C@@H](N)CC5)c(C)c4)nccn23)c(F)c1F` [Example 31, N-(4-aminocyclohexyl)-4-[[3-(2,3-difluoro-4-methoxyphenyl)imidazo[1,2-a]pyrazin-8-yl]amino]-2-methylbenzamide]: the IC90 in experiment [1] and in experiment [2] was 53 nM throughout. Regarding `COc1ccc(-c2cnc3c(Nc4ccc(C(=O)NC5CCN(C(=O)[C@@H]6C[C@@H](O)CN6)CC5)c(C)c4)nccn23)c(F)c1F` [Example 32, 4-[[3-(2,3-difluoro-4-methoxyphenyl)imidazo[1,2-a]pyrazin-8-yl]amino]-N-[1-[(2S,4R)-4-hydroxypyrroIidine-2-carbonyl]piperidin-4-yl]-2-methylbenzamide], the IC90 in experiment [1] and in experiment [2] was 66 nM in each case. Turning to `COc1ccc(-c2cnc3c(Nc4ccc(C(=O)N[C@H]5CC[C@@H](NC(=C(C)C)N(C)C)CC5)c(C)c4)nccn23)c(F)c1F` [Example 33, 4-[[3-(2,3-difluoro-4-methoxyphenyl)imidazo[1,2-a]pyrazin-8-yl]amino]-N-[4-[[1-(dimethylamino)-2-methylprop-1-enyl]amino]cyclohexyl]-2-methylbenzamide;formic acid], the IC90 in experiment [1] and in experiment [2] was 75 nM each time. In the case of `COc1ccc(-c2cnc3c(Nc4ccc(C(=O)N[C@H]5CC[C@@H](NC(=O)[C@@H]6C[C@@H](O)CN6)CC5)c(C)c4)nccn23)c(F)c1F` [Example 34, (2S,4R)-N-[4-[[4-[[3-(2,3-difluoro-4-methoxyphenyl)imidazo[1,2-a]pyrazin-8-yl]amino]-2-methylbenzoyl]amino]cyclohexyl]-4-hydroxypyrrolidine-2-carboxamide], the IC90 in experiment [1] and in experiment [2] was 54 nM throughout. Turning to `COc1ccc(-c2cnc3c(Nc4ccc(C(=O)N[C@H]5C[C@@H](N)C5)c(C)c4)nccn23)c(F)c1F` [Example 35, N-(3-aminocyclobutyl)-4-[[3-(2,3-difluoro-4-methoxyphenyl)imidazo[1,2-a]pyrazin-8-yl]amino]-2-methylbenzamide], the results for the 90% effect concentration (IC90) in experiment [1] and in experiment [2] were 62 nM and 63 nM, respectively.

As to `CCc1cc(Nc2nccn3c(-c4ccc(OC)c(F)c4F)cnc23)ccc1C(=O)N[C@H]1C[C@@H](NC(=O)[C@@H](N)CCCNC(=N)N)C1` [Example 37, N-[3-[[(2S)-2-amino-5-carbamimidamidopentanoyl]amino]cyclobutyl]-4-[[3-(2,3-difluoro-4-methoxyphenyl)imidazo[1,2-a]pyrazin-8-yl]amino]-2-ethylbenzamide;2,2,2-trifluoroacetic acid], the IC90 in experiment [1] and in experiment [2] was 99 nM throughout. For `COc1ccc(-c2cnc3c(Nc4ccc(C(=O)N[C@@H]5CCNC5)c(C)c4)nccn23)c(F)c1F` [Example 38, 4-[[3-(2,3-difluoro-4-methoxyphenyl)imidazo[1,2-a]pyrazin-8-yl]amino]-2-methyl-N-[(3R)-pyrrolidin-3-yl]benzamide], the IC90 in experiment [1] stood at 162 nM; in experiment [2] it was 160 nM. In experiment [2], `CCc1cc(Nc2nccn3c(-c4ccc(OC)c(F)c4F)cnc23)ccc1C(=O)NC1(CN)COC1` [Example 40, N-(3-(aminomethyl)oxetan-3-yl)-4-((3-(2,3-difluoro-4-methoxyphenyl)imidazo[1,2-a]pyrazin-8-yl)amino)-2-ethylbenzamide hydrochloride] displayed an IC90 of 482 nM.
